Test results: patent US12285395B2, “Pharmaceutical composition for preventing or treating allodynia caused by anticancer agents” (UNIVERSITY-INDUSTRY COOPERATION GROUP OF KYUNG HEE …, priority 2018, dated 2025)

How the values were obtained:
[1] = system: mechanical allodynia induced by oxaliplatin; experiment: Mechanical allodynia (von Frey filament 0.4 g), oxaliplatin animal model, oral cinnamic acid; assay type: in vivo, c57/bl6 mice; conditions: mice, 10 mg/kg oral (FIG. 1)
Experimental: Six-week-old mice (c57/bl6 mice) were prepared as an experimental animal.
Oxaliplatin (Sigma-Aldrich) dissolved in a 5% glucose solution at a concentration of 2 mg/mL was singly administered intraperitoneally to the experimental animal in an amount of 6 mg/kg. Significant pain was observed from about 3 days after intraperitoneal administration.
The number of reactions was recorded by stimulating the soles of both hind paws of the experimental animal 10 times using a von Frey filament at a pressure of 0.4 g.
The behaviors that are criteria for recording are an avoidance reaction and a behavior of licking the soles of the paw. The recording for both paws was averaged and confirmed.
Experimental animals induced with allodynia were selected through a pre-behavioral experiment, and the effects were confirmed at 2 h after oral administration of 10 mg/kg of cinnamic acid.

[2] = system: mechanical allodynia induced by vincristine; experiment: Mechanical allodynia (von Frey filament 0.4 g), vincristine animal model, oral cinnamic acid; assay type: in vivo, c57/bl6 mice; conditions: mice
Experimental: Six-week-old mice (c57/bl6 mice) were prepared as an experimental animal. Vincristine at a concentration of 1 mg/mL was injected intraperitoneally for 7 consecutive days at 0.1 mg/kg. Significant pain was observed from about 10 days after the first injection. The number of reactions was recorded by stimulating the soles of both hind paws of the experimental animal 10 times using a von Frey filament at a pressure of 0.4 g. The behaviors that are criteria for recording are an avoidance reaction and a behavior of licking the soles of the paw. The recording for both paws was averaged and confirmed. Experimental animals induced with allodynia were selected through a pre-behavioral experiment and orally administered with 50 mg/kg and 100 mg/kg of cinnamic acid, and the effects after 1 h and 2 h were confirmed.

[3] = system: oxaliplatin-induced mechanical allodynia; experiment: von Frey filament test (up-down method), oxaliplatin-induced mechanical allodynia, intraperitoneal administration; assay type: in vivo, Sprague Dawley (SD) rats
Experimental: Cinnamic acid (trans-cinnamic acid, Wako Pure Chemical Industries, Osaka, Japan) and cinnamaldehyde (Wako Pure Chemical Industries, Osaka, Japan) were dissolved in 10% dimethyl sulfoxide (DMSO, Sigma) (adjusted to pH 7 with 2 M HCl and 5 M NaOH) and 1% Tween 20 (Sigma), respectively. The final volume of 10% DMSO and 1% Tween 20 used in the experiment was […] rat. Cinnamic acid and cinnamaldehyde (10 mg/kg, 20 mg/kg, and 40 mg/kg) (i.p.) at different concentrations were administered to rats with cold allodynia and mechanical allodynia.
(§1) Seven-week-old male Sprague Dawley (SD) rats (180 g to 210 g, 95 rats total, Young Bio, Gyeonggi, Korea) were fed freely with feed and water in cages. The room temperature was maintained at 23±2° C. and a 12 h/12 h contrast cycle was maintained. All procedures described in the present disclosure were approved by the Animal Care and Use Committee of Kyunghee University (KHUASP[SE]-18-153) and followed the guidelines of the International Pain Research Association.
In order to measure cold allodynia and mechanical allodynia, according to a previous method (Flatters, S J; Bennett, G J Ethosuximide reverses paclitaxel- and vincristine-induced painful peripheral neuropathy. Pain 2004, 109, 150-161), an acetone drop test and a von Frey filament test (up-down method, Linton Instrumentation, Norfolk, UK) were performed, respectively. The rats were trained for one week before the start of the experiment to adapt to the touch and the experimental procedure. The rats were stabilized for 30 min before testing in a clear plastic box (20 cm×20 cm×14 cm) with a wire mesh bottom, while not recognizing the injection of oxaliplatin and other drugs.
For the mechanical allodynia test, paw withdrawal thresholds were measured in the right hind paw using a von Frey filament. Dixon's up-down method and Chaplan's calculation method were used, and a withdrawal threshold of 15 g was measured as a cut-off. In order to confirm the effects of cinnamaldehyde and cinnamic acid at different concentrations over time, the behavioral experiment was performed before injection of cinnamic acid and cinnamaldehyde (time point of 0 min) and at time points of 30 min, 60 min, and 120 min after injection.
Oxaliplatin (Wako Pure Chemical Industries, Osaka, Japan) was dissolved in a 5% glucose solution at a concentration of 2 mg/mL and injected intraperitoneally at a dose of 6 mg/kg. The same volume of 5% glucose solution (i.p.) was administered to a control.
All data are expressed as mean±S.E.M. (Standard error of the mean). The data in FIG. 4 was analyzed by a paired t-test (FIGS. 4A and 4B) or an unpaired t-test (FIG. 4C). The data in FIGS. 5 and 6 were expressed as mean±S.E.M. and analyzed by a Bonferroni post-test after one-way ANOVA to evaluate a statistical difference between groups. The data in FIG. 7A were analyzed using Dunnett's multiple comparisons test after two-way ANOVA. The 95% reliability was considered to be statistically significant.

spinal WDR neurons = experiment: In vivo extracellular recording of spinal WDR neurons after oxaliplatin; set-up: species or system Sprague Dawley (SD) rats; conditions: 20 mg/kg i.p., day 4 after oxaliplatin, vs 10% DMSO control (FIGS. 7A to 7D)
Experimental: as §1
Oxaliplatin (Wako Pure Chemical Industries, Osaka, Japan) was dissolved in a 5% glucose solution at a concentration of 2 mg/mL and injected intraperitoneally at a dose of 6 mg/kg. The same volume of 5% glucose solution (i.p.) was administered to a control. […]
All data are expressed as mean±S.E.M. (Standard error of the mean). The data in FIG. 4 was analyzed by a paired t-test (FIGS. 4A and 4B) or an unpaired t-test (FIG. 4C). The data in FIGS. 5 and 6 were expressed as mean±S.E.M. and analyzed by a Bonferroni post-test after one-way ANOVA to evaluate a statistical difference between groups. The data in FIG. 7A were analyzed using Dunnett's multiple comparisons test after two-way ANOVA. […]

For O=C(O)/C=C/c1ccccc1 [cinnamic acid], the “pain relief effect on mechanical allodynia compared to control (vehicle)” value [1] was “no significant pain relief effect”, the “pain relief effect on mechanical allodynia” value ([2]; 50 mg/kg oral (FIG. 3)) was “no significant pain relief effect” and the “pain relief effect on mechanical allodynia compared to control” value ([2]; 100 mg/kg oral (FIG. 3)) was “no significant pain relief effect”. The “effect on oxaliplatin-induced mechanical allodynia” value ([3]; 10 mg/kg i.p., 60 min after injection (FIG. 5B)) was “remarkable effect”, the “anti-allodynic effect on mechanical allodynia” value ([3]; 20 mg/kg i.p., all time points, compared with 10 and 40 mg/kg (FIG. 5B)) was “strongest anti-allodynic effect among the three doses” and the “effect on oxaliplatin-induced mechanical allodynia” value ([3]; 10, 20 and 40 mg/kg i.p., 30, 60, 120 min after injection (FIG. 5B, FIG. 6)) was “significantly alleviated”. For the same compound, the “increased activity of WDR neurons after oxaliplatin injection (brush, press, pinch, acetone drop stimulations)” value (spinal WDR neurons) was “significantly decreased”.
